Experimental data from EPA's ToxValDB 9.5 (doi:10.2903/j.efsa.2008.147r).

Assays:
[1] = tested on: Anas platyrhynchos
[2] = tested on: Aphidius rhopalosiphi; conditions: not reported
[3] = tested on: Apis mellifera; conditions: acute; duration: 48 hours; dermal; mortality
[4] = tested on: Canidae; conditions: chronic, oral, Dog Other, clinical signs
[5] = tested on: Daphnia magna; conditions: chronic/long-term; duration: 21 days; reproduction
[6] = tested on: Oncorhynchus mykiss
[7] = tested on: Rattus norvegicus
[8] = tested on: Tagia sp.

**Q.** How did the LD50 ([1]; acute, oral, unspecified, mortality) turn out when `CC[C@H](C)[C@H]1O[C@]2(C=C[C@@H]1C)C[C@@H]1C[C@@H](C/C=C(\C)[C@@H](O[C@H]3C[C@H](OC)[C@@H](O[C@H]4C[C@H](OC)[C@@H](O)[C@H](C)O4)[C@H](C)O3)[C@@H](C)/C=C/C=C3\CO[C@@H]4[C@H](O)C(C)=C[C@@H](C(=O)O1)[C@]34O)O2.CO[C@H]1C[C@H](O[C@H]2[C@H](C)O[C@@H](O[C@@H]3/C(C)=C/C[C@@H]4C[C@@H](C[C@]5(C=C[C@H](C)[C@@H](C(C)C)O5)O4)OC(=O)[C@@H]4C=C(C)[C@@H](O)[C@H]5OC/C(=C\C=C\[C@@H]3C)[C@]54O)C[C@@H]2OC)O[C@@H](C)[C@@H]1O` [Abamectin] was run?
**A.** Its LD50 is at most 77 mg/kg-day.

**Q.** And the NOEC ([1]; reproductive, M)?
**A.** Its NOEC is 1.33 mg/kg-day.

**Q.** And the LC50 ([1]; short-term, oral, feed, mortality)?
**A.** Its LC50 is 48.6 mg/kg-day.

**Q.** What about the LEL ([2]; mortality) of the same compound?
**A.** The LEL was 4.32 g/ha.

**Q.** And the LEL ([2]; reproduction)?
**A.** The LEL was 4.32 g/ha.

**Q.** What about the LD50 [3] of the same compound?
**A.** Its LD50 is 0.0022 µg/piece.

**Q.** And the NOAEL ([4]; duration: 18 weeks)?
**A.** The NOAEL was 0.25 mg/kg-day.

**Q.** And the NOAEL ([4]; duration: 53 weeks)?
**A.** The NOAEL was 0.25 mg/kg-day.

**Q.** And the NOEC [5]?
**A.** Its NOEC is 1e-05 mg/L.

**Q.** What about the LC50 ([6]; acute, duration: 96 hours, mortality) of the same compound?
**A.** Its LC50 is 3.6 ng/mL.

**Q.** What about the NOEC ([6]; chronic/long-term, duration: 28 days) of the same compound?
**A.** The NOEC was 0.00052 mg/L.

**Q.** What about the NOAEL ([7]; acute, clinical signs) of the same compound?
**A.** The NOAEL was 0.5 mg/kg-day.

**Q.** And the LD50 ([7]; acute, oral, mortality)?
**A.** The LD50 was 8.7 mg/kg-day.

**Q.** And the NOEC ([7]; chronic)?
**A.** The NOEC was 0.12 mg/kg-day.

**Q.** What about the LC50 ([8]; acute, duration: 14 days, mortality) of the same compound?
**A.** The LC50 was 33 mg/kg.

**Q.** And the NOEC ([8]; chronic/long-term)?
**A.** Its NOEC is over 0.72 mg/kg.
